According to PubChem BioAssay (NCI):
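Protocol summary: plate cells (96-well), add compound at 5 concentrations, incubate 48 h, interpolate endpoints linearly. GI50 = concentration required for 50% inhibition of growth. TGI is the concentration that stops growth completely.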

Experiments:
Test in all cases: NCI-60 cell line screen, 48 h
[1] = system: HOP-62 NSCLC
[2] = system: MALME-3M melanoma
[3] = system: RPMI-8226 leukemia
[4] = system: SK-MEL-28 melanoma
[5] = system: SN12C renal
[6] = system: SW-620 colon
[7] = system: TK-10 renal
[8] = system: UO-31 renal
[9] = system: HOP-18 NSCLC
[10] = system: M19-MEL melanoma

Row | Compound | TGI [1] | TGI [2] | TGI [3] | TGI [4] | TGI [5] | TGI [6] | TGI [7] | TGI [8] | TGI [9] | TGI [10] | GI50 [1] | GI50 [2] | GI50 [3] | GI50 [4] | GI50 [5] | GI50 [6] | GI50 [7] | GI50 [8] | GI50 [9]
1 | C#CC1=CC(=O)C(OC)=CC1=O | 36.6 µM | 55.2 µM | 49.6 µM | > 100 µM | 31.7 µM | 40 µM | > 100 µM | 14.3 µM |  |  |  |  |  |  |  |  |  |  | 
2 | CN(C)CC1CC/C(=C\c2ccc3c(c2)OCO3)C1=O (stereo not drawn) | > 70.1 µM | 18.3 µM |  | 22.9 µM | 30.3 µM | 14.4 µM | 25.1 µM | 24.8 µM | 29.7 µM | 35.5 µM |  |  |  |  |  |  |  |  | 
3 | CN1Cc2ccccc2/C=C\c2ccccc21 | > 100 µM | > 100 µM | 68.7 µM | > 100 µM | > 100 µM | > 100 µM | > 100 µM | > 100 µM |  |  |  |  |  |  |  |  |  |  | 
4 | CS(=O)(=O)c1ccc(Nc2nc(N[C@H]3CCCC[C@H]3N)nc3cc[nH]c(=O)c23)cc1 | > 100 µM | 4.64 µM | 32.8 µM | 5.38 µM | > 100 µM | 8.6 µM | 18.7 µM | 72.9 µM |  |  | 3.02 µM | 1.73 µM | 4 µM | 1.93 µM | 2.76 µM | 0.627 µM | 3.19 µM | 19.7 µM | 
5 | CCC(C)CC(C)CC(C)/C=C(\C)C1=C(C)CC(C)(O)O1 (stereo not drawn) |  |  | 90.7 µM | > 100 µM | > 100 µM | > 100 µM | > 100 µM | > 100 µM | > 100 µM | > 100 µM |  |  |  |  |  |  |  |  | 
6 | N#Cc1ccccc1NC(=O)C(=O)C1NC(=S)NC1=O (stereo not drawn) | > 100 µM | > 100 µM | > 100 µM | > 100 µM | > 100 µM | > 100 µM | > 100 µM |  | > 100 µM | > 100 µM |  |  |  |  |  |  |  |  | 
7 | Cn1cc(C2=C(c3c[nH]c4ccccc34)C(=O)NC2=O)c2ccccc21 | > 25 µM | > 25 µM | > 20.8 µM | > 25 µM | > 25 µM | > 25 µM | > 25 µM | > 25 µM |  |  | 0.585 µM | 0.143 µM | 1.57 µM | 7 µM | 1.32 µM | > 4.92 µM | 0.132 µM | 0.334 µM | 
8 | C1CCCCc2nc3c(nc2CCC1)c1nc2c(nc1c1nc4c(nc31)CCCCCCCC4)CCCCCCCC2 | > 100 µM | > 100 µM |  | > 100 µM | > 100 µM | > 100 µM | > 100 µM | > 100 µM | > 100 µM |  |  |  |  |  |  |  |  |  | 
9 | CCCCCCSSC(=S)N(CC)CC | > 100 µM | 60.4 µM | > 100 µM | 61.4 µM | 40.3 µM | 39.6 µM | 56.7 µM | 34.9 µM |  |  | 34.6 µM | 23 µM | 18.8 µM | 25 µM | 18.3 µM | 18.5 µM | 25.8 µM | 18.1 µM | 
10 | COc1cc2c(c(OC)c1OC)-c1ccc(SC)c(=O)cc1[C@@H](NCc1ccc([N+](=O)[O-])cc1)CC2 | > 100 µM | > 100 µM | > 100 µM |  | > 100 µM | > 100 µM |  | > 100 µM | > 100 µM | > 100 µM | 0.429 µM |  |  |  |  |  |  |  | > 100 µM
